Source: patent US20250145637A1, “SULFONAMIDE DERIVATIVE, PREPARATION METHOD THEREFOR AND MEDICAL USE THEREOF” (Jiangsu Hengrui Pharmaceuticals Co. Ltd., priority 2021, published 2025)
Read-outs that look alike come from different tables or passages of the source.

Legend:
human KAT6B = human KAT6B (Homo sapiens (Human), UniProt Q8WYB5); assay: KAT6B enzyme activity assay (AlphaScreen method); type: biochemical; settings: inhibition of the enzyme human KAT6B
Text: Test Example 2: KAT6B Enzyme Activity Assay (AlphaScreen Method)
I. Reagents and Instrument
• 1. KAT6B (718-1008) (ActiveMotif, 81224) • 2. Bovine serum albumin (Sangon, A500023-0100) • 3. 2 M Tris-HCl solution, pH 7.8, sterile (Sangon, B548140-0500) • 4. EDTA (0.5 M), pH 8. 0, RNase-free (Thermofisher, AiM9260G) • 5. Tween-20 (Sangon, A100777-0500) • 6. DTT, 1 M (Invitrogen, P2325) • 7. Acetyl coenzyme A (Ac-CoA, CAYMAN, Cat. No. 16160) • 8. Recombinant histone H3.1 biotinylated (human) (Active Motif 31696) • 9. 384-well plate, light gray (Perkin Elmer, Cat. No. 6007290) • 10. Anacardic acid (MCE, Cat. No. HY—N2020) • 11. AlphaScreen streptavidin donor beads, 5 mg (PerkinElmer, 6760002) • 12. AlphaScreen protein A acceptor beads, 5 mg (PerkinElmer, 6760137M) • 13. Acetylated-lysine antibody #9441 (CST 9441S) • 14. DMSO (Tansoole, G7592B) • 15. PHERA star microplate reader (BMG labtech)
a. 1× buffer 2: 50 mM Tris-HCl, pH 7.8; 0.1 mM EDTA; 0.01% v/v tween-20; 1 mM DTT; 0.01% m/v bovine serum albumin.
b. KAT6B enzyme solution: 3 nM (final concentration), prepared in buffer 2.
c. Mixed substrate of Ac-CoA and H3: a mixed substrate of 30 nM (final concentration) Ac-CoA and 30 nM (final concentration) H3, prepared in buffer 2.
d. Compounds: initial concentration of 10 mM, 4-fold dilution, 10 gradient concentrations. All compound concentrations were diluted 2500-fold with buffer 2 for later use.
e. Assay reagent: 8 ng/μL (final concentration) AlphaScreen protein A acceptor beads, 8 ng/μL AlphaScreen streptavidin donor beads, 1:1000 diluted acetylated-lysine antibody, and 100 μM anacardic acid; prepared in buffer 2.
2. Experimental Procedure
a. The prepared compound solutions were added to a 384-well plate at 2 μL/well, and 2 μL of buffer 2 (containing 0.04% DMSO) was added to each Min well and each Max well as controls. The plate was centrifuged.
b. The prepared enzyme solution was added at 2 μL/well, and 2 μL of buffer 2 was added to each Min well. The plate was centrifuged, shaken for 2 min, and incubated at room temperature for 10 min.
c. The mixed substrate of Ac-CoA and H3 was added at 4 μL/well, and the plate was centrifuged, shaken for 2 min, and incubated at room temperature for 120 min.
d. The assay reagent was added at 4 μL/well, and the plate was centrifuged, shaken for 2 min, and incubated in the dark at room temperature for 120 min.
e. Plate reading was performed on the microplate reader, and AlphaScreen counts were recorded.
f. Dose-response curves were plotted using log(inhibitor) vs. response of the graphpad prism software, with the abscissa representing the logarithm of the compound concentration and the ordinate representing the calculated enzyme activity inhibition rate, and IC50 values were calculated.

[1] = Pharmacokinetic evaluation in C57 mice; type: in vivo; settings: for Vd / AUC(0-t) / half-life / Cmax / bioavailability / CL/F: both sexes, mouse, plasma; for Vd: read-out: Apparent distribution volume Vss; for AUC(0-t): read-out: Area under curve AUC0-t; for half-life: read-out: Half-life T½ (converted); for Cmax: read-out: Plasma concentration Cmax; for bioavailability: oral, i.g. 2.0 mg/kg vs i.v. 1.0 mg/kg, read-out: Bioavailability F (%); for CL/F: read-out: Clearance rate CL/F; for Clearance rate CL/F: i.v.
Protocol: C57 mice were used as test animals. After intragastric (i.g.)/intravenous (i.v.) administration of the compounds of the present disclosure to C57 mice, the plasma concentrations at different time points were measured by the LC/MS/MS method. The pharmacokinetic behavior of the compounds of the present disclosure in C57 mice was studied and their pharmacokinetic profiles were evaluated.
Compound 2 and compound 3.
36 C57 mice, of which half were male and half female, were evenly divided into 4 groups of 9, 3 mice per time point per group. The mice were provided by Vital River Laboratory Animal Technology Co., Ltd. The mice were intragastrically and intravenously administered the compounds.
2.3. Compound Solution Preparation
A certain amount of test compound was weighed out and dissolved in 5% DMSO+5% tween 80+90% normal saline to prepare a 0.1 mg/mL colorless clear solution (for the intragastric administration groups) and a 0.1 mg/mL colorless clear solution (for the intravenous administration groups).
Intragastric administration groups: The dose was 2.0 mg/kg, and the volume was 0.2 mL/10 g.
Intravenous administration groups: The dose was 1.0 mg/kg, and the volume was 0.1 mL/10 g.
Intragastric administration groups: 0.1 mL blood samples were collected before the administration and 0.25 h, 0.5 h, 1.0 h, 2.0 h, 4.0 h, 6.0 h, 8.0 h, 11.0 h and 24.0 h post-dose. The blood samples were placed into EDTA-K2 anticoagulation tubes and centrifuged at 10,000 rpm for 1 min (4° C.), and plasma was separated within 1 h and stored at −80° C. before analysis. The process from the blood collection to the centrifugation was performed in an ice bath.
Intravenous administration groups: Blood samples were collected before administration and 5 min, 0.25 h, 0.5 h, 1.0 h, 2.0 h, 4.0 h, 8.0 h, 11.0 h and 24 h post-dose and were treated in the same way as those collected from the intragastric administration groups.
Measurement of plasma concentrations in C57 mice after compounds were administered in different concentrations: 25 μL samples of the C57 mouse plasma collected at various time points post-dose were taken, and to each of the samples was added 50 μL of diclofenac (an internal standard for compound 2, 100 ng/mL) or 25 μL of tolbutamide (an internal standard for compound 3, […], purchased from LGC Ltd., UK). Protein was precipitated with 200 μL of acetonitrile, and after 5 min of vortexing, the mixtures were centrifuged at 3700 rpm for 10 min. 120 μL of supernatant was taken and vortexed with 30 μL of water for 5 min, and a 5 μL sample was taken for LC/MS/MS analysis. 4. Pharmacokinetic parameters

human KAT6B, sequence (Q8WYB5 718-1008): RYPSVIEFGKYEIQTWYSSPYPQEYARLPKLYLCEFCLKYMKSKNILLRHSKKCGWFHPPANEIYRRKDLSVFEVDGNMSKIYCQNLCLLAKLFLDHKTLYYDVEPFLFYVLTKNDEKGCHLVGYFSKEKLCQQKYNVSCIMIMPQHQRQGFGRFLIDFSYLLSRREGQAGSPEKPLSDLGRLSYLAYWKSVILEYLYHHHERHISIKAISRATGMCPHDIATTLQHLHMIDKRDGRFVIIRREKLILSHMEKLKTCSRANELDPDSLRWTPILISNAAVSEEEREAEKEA

IC50 (human KAT6B) [nM] | Vd ([1]; iv, 1.0 mg/kg) [L/kg] | AUC(0-t) ([1]; iv, 1.0 mg/kg) [µg·h/mL] | half-life ([1]; iv, 1.0 mg/kg) [h] | Cmax ([1]; iv, 1.0 mg/kg) [ng/mL] | bioavailability [1] [%] | AUC(0-t) ([1]; po, i.g., 2.0 mg/kg) [µg·h/mL] | CL/F ([1]; po, i.g., 2.0 mg/kg) [mL/h/kg] | half-life ([1]; po, i.g., 2.0 mg/kg) [h] | Cmax ([1]; po, i.g., 2.0 mg/kg) [ng/mL] | Clearance rate CL/F ([1]; 1.0 mg/kg) [mL/h/kg] | SMILES
1.1 | – | – | – | – | – | – | – | – | – | – | COc1cccc(OC)c1S(=O)(=O)Nc1noc2cc(Cn3cccn3)c3c(c12)OCC3 [Compound 1, N-(4-((1H-pyrazol-1-yl)methyl)-2,3-dihydrobenzofuro[7,6-d]isoxazol-8-yl)-2,6-dimethoxybenzenesulfonamide]
0.7 | 0.093 | 188 | 18.4 | 17600 | 108 | 405 | 1.98 | 29.7 | 40100 | 3.02 | COc1cccc(OC)c1S(=O)(=O)Nc1noc2cc(Cn3cccn3)c3c(c12)OCCC3 [Compound 2, N-(5-((1H-pyrazol-1-yl)methyl)-3,4-dihydro-2H-chromeno[8,7-d]isoxazol-9-yl)-2,6-dimethoxybenzenesulfonamide]
1.4 | 0.102 | 209 | 49 | 22100 | 94.1 | 393 | 1.35 | 58.3 | 33000 | 1.51 | COc1ccccc1S(=O)(=O)Nc1noc2cc(Cn3cccn3)c3c(c12)OCCC3 [Compound 3, N-(5-((1H-pyrazol-1-yl)methyl)-3,4-dihydro-2H-chromeno[8,7-d]isoxazol-9-yl)-2-methoxybenzenesulfonamide]
1.5 | – | – | – | – | – | – | – | – | – | – | COc1cccc(OC)c1S(=O)(=O)Nc1noc2cc(Cn3cccn3)c3c(c12)OC(F)(F)O3 [Compound 5, N-(4-((1H-pyrazol-1-yl)methyl)-2,2-difluoro-[1,3]dioxolo[4′,5′:5,6]benzo[1,2-d]isoxazol-8-yl)-2,6-dimethoxybenzenesulfonamide]
